According to patent US20090170880A1, “Methods and Means for the Treatment of Cancer” (priority 2007, published 2009):
“Also recorded” adds a separate entry of the source.

How the values were obtained:
[1] = tested on: intracranial Mel57-luc tumor xenografts; assay: Efficacy against intracranial Mel57-luc tumor xenografts; type: in vivo, nude mice
Protocol: Intracranial Mel57-luc (luciferase transfected subline) tumor xenografts in wild-type nude mice (WT) and mdr1ab knockout nude mice (MDR) were established according to the protocol below (see Kemper et al, Eur J Cancer 42:3294-3303, 2006).
The Mel57 cell line (University Medical Centre, Nijmegen, The Netherlands) is a human melanoma cell line and was cultured in MEM (Life Technologies Inc., Breda, The Netherlands) supplemented with 10% foetal calf serum, non-essential amino acids, streptomycin, penicillin and sodium pyruvate (all Life Technologies), and incubated at 37° C. and 5% CO2 in humidified air. The cell line was further transfected by standard protocols with lipofectamine using a pBS vector containing a β-actin driven luciferase gene coupled via an internal ribosome […] to GFP. After expansion, GFP bright cells were sorted to single cells by FACS, expanded and sublines tested for luciferase expression by an in vitro bioluminescence assay (Promega, Benelux BV, Leiden, The Netherlands). Three to five sublines showing the highest luminescence activity were tested in vivo for tumour take and intracranial growth behaviour. To retrieve tumour cells for injection, the cell culture was trypsinised (trypsin 0.05%; EDTA 0.02%, Life Technologies), washed two times with Hanks Balanced Saline Solution (HBSS, Life Technologies Inc.), counted and resuspended in an appropriate volume of HBSS. The single cell suspension was kept on ice until injection. […]
Mel57-luc cells (100,000 cells/2 μl) were injected stereotactically in the brain as described in detail in Kemper et al^14. […] The amount of bioluminescence in each animal was calculated relative to the first measurement when therapy was initiated (arbitrarily set at 100%) and was log converted prior to data analysis. Tumor volume was measured by bioluminescence activity (see Kemper et al, Eur J Cancer 42:3294-3303, 2006).

[2] = Transwell experiments, recovery of temozolomide in acceptor compartment; type: in vitro ADME; settings: after 30 min, transport medium pH 7.4
Protocol: The parental LLC pig-kidney (PK1) cell line and sublines transduced with murine Mdr1a or human MDR1 (12) and the parental Madine Darby Canine Kidney (MDCK) and murine Bcrp1 or human BCRP transduced sublines (13) were seeded on Transwell microporous polycarbonate membrane filters (3.0 μm pore size, 24 mm diameter; Costar Corning, N.Y., USA) at a density of 1×10^6 cells per well in 2 ml of MEM medium (Invitrogen Corporation, Carlsbad, Calif.) containing 10% v/v fetal calf serum. Cells were incubated at 37° C. in 5% CO2 for three days with one medium replacement after the first day. Two hours before the start of the experiment the medium in both compartments was replaced with 2 ml of OptiMEM medium (InVitrogen Corp.). At the start of the experiment the medium in the apical or basolateral compartment was replaced with 2 ml of freshly prepared OptiMEM medium containing 40 μg/ml of temozolomide. […] Zosuquidar (LY335979, 5 μM) was always added to the medium when doing experiments with MDCK cell lines to inhibit endogenous canine P-gp. Samples of 50 μl were collected every 30 min, for up to 2 h after start of the experiment. Because temozolomide is instable in medium at 37° C., we replaced one ml of the donor compartment by a freshly prepared aliquot every 30 min. […]

[3] = biological target: T1, murine Bcrp1 (Mus musculus, UniProt Q7TMS5); assay: Transwell transport of temozolomide, MDCKII-Bcrp1 cells, without or with inhibitors; type: in vitro ADME; settings: 40 μg/ml, MDCK-Bcrp1 versus MDCK parent, zosuquidar 5 μM
T1 construct: expressed in transfected cells; host or cells: MDCKII (canine kidney) cells transduced with murine Bcrp1
T1 sequence (Q7TMS5 1-657): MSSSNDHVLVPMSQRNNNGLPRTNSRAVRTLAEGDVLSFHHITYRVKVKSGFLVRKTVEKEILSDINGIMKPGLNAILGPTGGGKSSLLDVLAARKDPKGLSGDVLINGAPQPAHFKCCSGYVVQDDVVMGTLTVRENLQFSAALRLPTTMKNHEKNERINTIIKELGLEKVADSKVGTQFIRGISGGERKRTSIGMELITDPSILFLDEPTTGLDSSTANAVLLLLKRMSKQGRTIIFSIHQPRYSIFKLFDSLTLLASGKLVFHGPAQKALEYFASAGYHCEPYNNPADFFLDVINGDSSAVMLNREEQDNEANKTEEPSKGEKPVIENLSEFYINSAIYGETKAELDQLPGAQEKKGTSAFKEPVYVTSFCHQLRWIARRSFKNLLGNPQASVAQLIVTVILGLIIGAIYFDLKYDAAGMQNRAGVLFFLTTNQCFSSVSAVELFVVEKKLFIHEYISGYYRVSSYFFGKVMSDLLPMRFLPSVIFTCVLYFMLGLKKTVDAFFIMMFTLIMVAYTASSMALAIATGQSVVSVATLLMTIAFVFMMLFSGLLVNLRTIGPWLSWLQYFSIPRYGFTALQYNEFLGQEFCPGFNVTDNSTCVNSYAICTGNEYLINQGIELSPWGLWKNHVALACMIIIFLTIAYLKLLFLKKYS
Protocol: The parental LLC pig-kidney (PK1) cell line and sublines transduced with murine Mdr1a or human MDR1 (12) and the parental Madine Darby Canine Kidney (MDCK) and murine Bcrp1 or human BCRP transduced sublines (13) were seeded on Transwell microporous polycarbonate membrane filters (3.0 μm pore size, 24 mm diameter; Costar Corning, N.Y., USA) at a density of 1×10^6 cells per well in 2 ml of MEM medium (Invitrogen Corporation, Carlsbad, Calif.) containing 10% v/v fetal calf serum. Cells were incubated at 37° C. in 5% CO2 for three days with one medium replacement after the first day. Two hours before the start of the experiment the medium in both compartments was replaced with 2 ml of OptiMEM medium (InVitrogen Corp.). At the start of the experiment the medium in the apical or basolateral compartment was replaced with 2 ml of freshly prepared OptiMEM medium containing 40 μg/ml of temozolomide. […] Zosuquidar (LY335979, 5 μM) was always added to the medium when doing experiments with MDCK cell lines to inhibit endogenous canine P-gp. Samples of 50 μl were collected every 30 min, for up to 2 h after start of the experiment. Because temozolomide is instable in medium at 37° C., we replaced one ml of the donor compartment by a freshly prepared aliquot every 30 min. [^3H]-inulin (approximately 7 kBq per well) was added to the same compartment as temozolomide to check the integrity of the cell layer. Wells showing a leakage of more than 1.5% per hour were excluded.
First, we took samples every 30 min for up to 2 h instead of every hour for up to 4 h. Secondly, to maintain adequate temozolomide levels at the donor side throughout the experiment we replaced 1 ml of the 2 ml of medium at the donor side of the transwell at each sampling time by 1 ml of a freshly prepared temozolomide solution in medium.

## Cn1nnc2c(C(N)=O)ncn2c1=O [temozolomide, 8-carbamoyl-3-methyl-[3H]-imidazo[5,1-d]-1,2,3,5-tetrazin-4-one]
[1]; oral 100 mg/kg for 5 consecutive days, bioluminescence, 100 mg/kg
  response to temozolomide, P-gp (Mdr1ab) knockout versus wild-type nude mice: greater reduction in tumor volume; also recorded: respond better
[1]; oral 100 mg/kg/day×5 from day 7, bioluminescence
  difference in efficacy, Bcrp1/Mdr1ab knockout versus wild-type nude mice: more pronounced
[2]
  dose recovered in the acceptor compartment: at least 5%
[3]
  transport of temozolomide by murine Bcrp1: clear vectorial transport
[3]; listed as Temozolomide
  transport of temozolomide by murine Bcrp1: evident
